Publication PMC9966338, “Inhibitory Potential of α-Amylase, α-Glucosidase, and Pancreatic Lipase by a Formulation of Five Plant Extracts: TOTUM-63” (International Journal of Molecular Sciences, 2023)
Like-named read-outs stand apart in the source and are kept apart here.

Experiments:
[1] = system: α-amylase; parameters: method as in PMID 30050443; details: based on IC50 values; cited from earlier work
[2] = target: T1, α-glucosidase (Saccharomyces cerevisiae, UniProt P53341); experiment: Interactions with α-glucosidase by fluorescence spectrum changes; type: binding; details: excitation 285 nm, emission 320–440 nm
T1 construct: purchased Merck/Sigma-Aldrich
Protocol: Potassium phosphate buffer (0.1 M, pH 6.8) was used as the reaction buffer. The final α-glucosidase concentration in the wells was 1.275 mg/mL. For each microplate well, 20 µL of test product in a 50:50 (v:v) water:ethanol mixture (or 20 µL of this solvent mixture for the controls without products), 100 µL of α-glucosidase in buffer (or 100 µL of buffer for the blanks), and 40 µL of buffer were incubated at 25 °C in a microplate reader for 5 min. Then, fluorescence was measured at an excitation of 285 nm and an emission scan ranging from 320 nm to 440 nm.

[3] = target: T2, α-Glucosidase (maltase from Saccharomyces cerevisiae) (Saccharomyces cerevisiae, UniProt P53341); experiment: α-Glucosidase inhibition kinetics (Lineweaver–Burk, SigmaPlot fit); type: biochemical
T2 construct: purchased Merck/Sigma-Aldrich
Protocol: α-glucosidase inhibition kinetics was investigated in vitro using the method described in Section 4.2.1. Inhibition models were determined by analysis of the Lineweaver–Burk plots using four concentrations of substrate and four concentrations of test products (including a “0”, without inhibitor). All initial rates were fitted to all enzymatic kinetic models with one substrate and one inhibitor provided by the Enzyme Kinetics Module of Sigma Plot 12 (Systat Software Inc., San Jose, CA, USA), using non-linear least-square regression models to determine the inhibition model and calculate the inhibitory constant (Ki).
Equations (2) and (3) (below) were used for data analysis and corresponded to the inhibition models that best fitted our data according to the SigmaPlot software 12 (Systat Software Inc., San Jose, CA, USA) [73]. […] Ki’ corresponds to the second inhibitor dissociation constant because, in a mixed model, the constants for E + I ↔ EI and ES + I ↔ ESI are different. Factor α, given by SigmaPlot (Systat Software Inc., San Jose, CA, USA), represents the equilibrium between Ki’ and Ki. (2) v =Vmax/1+(Km/[S])×(1+[I]/Ki) (3) v =Vmax/(1+[I]/Ki^’)+Km/[S]×(1+[I]/Ki)

[4] = system: α-glucosidase; details: cited from earlier work
[5] = target: T2, α-Glucosidase (maltase from Saccharomyces cerevisiae); experiment: biochemical; type: biochemical
Text: Chrysanthellin B was purchased from Extrasynthese (Genay, France). 2-(N-morpholino)-ethanesulfonic acid (MES) buffer was purchased from ThermoFisher Scientific (Waltham, Massachusetts, USA). NaN3 was obtained from Carlo Erba Reagents (Val-de-Reuil, France). Pure water was obtained using an Evoqua ultra-pure water production system (Water Technologies, Günzburg, Germany). The RED-NHS protein labeling kit was from NanoTemper Technologies (Munich, Germany).
α-Glucosidase hydrolytic activity was assessed by monitoring the conversion of p-nitrophenyl-α-D-glucopyranoside (PNPg) into p-nitrophenol (PNP). PNP levels were quantified at 405 nm. […] A series of PNP dilutions in buffer was used to generate the standard curve to convert PNP absorbance values into concentrations. The final α-glucosidase concentration corresponded to an activity of 30 µM of PNP/min for negative control without inhibitor. In each microplate well, 20 µL of test products diluted in a 50:50 (v:v) water:ethanol mixture (or 20 µL of this solvent mixture for the negative controls), 20 µL of α-glucosidase in buffer (or 20 µL of buffer for the blanks), and 100 µL of buffer were incubated in a microplate reader at 37 °C for 10 min. Then, 20 µL of PNPg substrate (2.5 mM in buffer) was added to each well to initiate the reaction. A FLUO Star Omega (BMG LabTech, Champigny sur Marne, France) 96-well microplate reader, thermostatically controlled at 37 °C, was used to measure the absorbance at 405 nm, every minute for 30 min. […] (1) % Relative activity=Residual activity/Negative control activity×100

[6] = system: lipase; parameters: method as in PMID 36105167; details: based on IC50 values; cited from earlier work

T2 sequence (P53341 whole entry): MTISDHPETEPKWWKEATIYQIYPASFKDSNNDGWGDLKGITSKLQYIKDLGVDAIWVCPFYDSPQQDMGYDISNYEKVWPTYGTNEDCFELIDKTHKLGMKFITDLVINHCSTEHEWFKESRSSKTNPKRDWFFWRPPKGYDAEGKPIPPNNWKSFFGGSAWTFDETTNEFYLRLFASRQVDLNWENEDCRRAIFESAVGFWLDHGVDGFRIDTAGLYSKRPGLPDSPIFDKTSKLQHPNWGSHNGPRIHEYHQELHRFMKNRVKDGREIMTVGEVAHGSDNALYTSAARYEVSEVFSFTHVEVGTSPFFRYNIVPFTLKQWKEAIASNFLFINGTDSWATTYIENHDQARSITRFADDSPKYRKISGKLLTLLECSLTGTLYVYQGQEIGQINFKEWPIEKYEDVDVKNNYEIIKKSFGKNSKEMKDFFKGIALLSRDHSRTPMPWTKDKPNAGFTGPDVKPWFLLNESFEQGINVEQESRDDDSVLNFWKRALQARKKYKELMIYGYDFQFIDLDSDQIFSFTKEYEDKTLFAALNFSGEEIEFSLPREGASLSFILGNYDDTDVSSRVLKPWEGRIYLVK
T1 sequence (P53341 whole entry): as above

## O=C(/C=C/c1ccc(O)c(O)c1)O[C@@H]1C[C@](OC(=O)/C=C/c2ccc(O)c(O)c2)(C(=O)O)C[C@@H](O)[C@H]1O [1,5-dicaffeoylquinic acid]
[1]
  inhibitory activity on α-amylase, times higher than acarbose: 6.2 times

## O=C(/C=C/c1ccc(O)c(O)c1)O[C@@H]1[C@H](O)C[C@@](O)(C(=O)O)C[C@H]1OC(=O)/C=C/c1ccc(O)c(O)c1 [3,4-dicaffeoylquinic acid]
[1]
  inhibitory activity on α-amylase, times higher than acarbose: 7.2 times

## O=C(/C=C/c1ccc(O)c(O)c1)O[C@@H]1CC(O)(C(=O)O)C[C@@H](OC(=O)/C=C/c2ccc(O)c(O)c2)C1O (stereo partly drawn) [3,5-dicaffeoylquinic acid]
[1]
  inhibitory activity on α-amylase, times higher than acarbose: 9.4 times

## O=C(/C=C/c1ccc(O)c(O)c1)O[C@H]1[C@H](O)C[C@](O)(C(=O)O)C[C@H]1OC(=O)/C=C/c1ccc(O)c(O)c1 [4,5-dicaffeoylquinic acid]
[1]
  inhibitory activity on α-amylase, times higher than acarbose: 11.4 times

## C[C@H]1O[C@H](O[C@H]2[C@H](O)[C@@H](O)[C@@H](O[C@H]3[C@H](O)[C@@H](O)C(O)O[C@@H]3CO)O[C@@H]2CO)[C@H](O)[C@@H](O)[C@@H]1N[C@H]1C=C(CO)[C@@H](O)[C@H](O)[C@H]1O (stereo partly drawn) [Acarbose, acarbose]
[2]
  α-glucosidase fluorescence intensity with increasing concentrations: less obvious effect
[3]; best-fitting model
  Inhibition type: Competitive (full)
[3]; α-glucosidase in the presence of the inhibitor
  Vmax: 0.00182 mM/min

## O=C(/C=C/c1ccc(O)c(O)c1)O[C@@H]1C[C@](O)(C(=O)O)C[C@@H](O)[C@H]1O [Chlorogenic acid]
[4]
  α-glucosidase inhibition mechanism: mixed

## CC1OC(OC2C(O)COC(OC3C(C)OC(OC4C(OC(=O)C56CCC(C)(C)CC5C5=CCC7C8(C)CCC(OC9OC(CO)C(O)C(O)C9O)C(C)(CO)C8CCC7(C)C5(C)CC6O)OCC(O)C4O)C(O)C3O)C2O)C(O)C(O)C1O (stereo not drawn) [Chrysanthellin B]
[5]
  inhibitory effect on α-glucosidase relative to acarbose: five times lower
[5]; PNPg substrate, pH 6.8, 37 °C, read-out: IC50 α-Glucosidase (converted)
  IC50: 127 µM

## O=c1cc(-c2ccc(O)c(O)c2)oc2cc(O)cc(O)c12 [Luteolin]
[4]
  α-glucosidase inhibition mechanism: non-competitive
[5]
  IC50: 1.4 µM

## CC1(C)CC[C@]2(C(=O)O)CC[C@]3(C)C(=CC[C@@H]4[C@@]5(C)CC[C@H](O)C(C)(C)[C@@H]5CC[C@]43C)[C@@H]2C1 [Oleanolic acid]
[4]
  inhibitory activity on α-glucosidase, times higher than acarbose: 162 times

## C/C=C1/[C@H](O[C@@H]2O[C@H](CO)[C@@H](O)[C@H](O)[C@H]2O)OC=C(C(=O)OC)[C@H]1CC(=O)OCCc1ccc(O)c(O)c1 [Oleuropein]
[5]
  IC50: 5.74 µM

## O=C(/C=C/C=C/c1ccc2c(c1)OCO2)N1CCCCC1 [Piperine]
[4]
  α-glucosidase inhibition mechanism: mixed

## O=C(/C=C/c1ccc(O)c(O)c1)O[C@@H]1C[C@@](OC(=O)/C=C/c2ccc(O)c(O)c2)(C(=O)O)C[C@@H](O)[C@@H]1O [cynarin]
[1]
  inhibitory activity on α-amylase, times higher than acarbose: 4.8 times

## O=C1C[C@@H](c2ccc(O)c(O)c2)Oc2cc(O)cc(O)c21 [eriodictyol]
[6]
  lipase inhibitory activity relative to orlistat: more than two times higher

## O=c1cc(-c2ccc(O)c(O)c2)oc2cc(O[C@@H]3O[C@H](CO)[C@@H](O)[C@H](O)[C@H]3O)cc(O)c12 [luteolin-7-O-glucoside]
[6]
  lipase inhibitory activity relative to orlistat: more than two times higher
